Source: US20240041899A1, “SOLID PREPARATION” (ASKA Pharmaceutical Co., Ltd., priority 2020, published 2024)

How the values were obtained:
Format in all cases: in vivo
[1] = test system: lower urinary tract obstruction model of rats (female); experiment: Test Example 1: urination function in lower urinary tract obstruction model of female rats; details: oral once a day 2 weeks, Compound B 3 mg/kg and 10 mg/kg
Source text: A lower urinary tract obstruction model of rats was used as a test system. A test substance was orally administered to the lower urinary tract obstruction model repeatedly over two (2) weeks to examine the action on the urination function in the lower urinary tract obstruction model.
More specifically, the rats (female, Crl:CD(SD), 8-week-old; Charles River Laboratories Japan, Inc.) were operated to form lower urinary tract obstruction and repeatedly received oral administration of the test substance at a frequency of once a day over two (2) weeks. After the completion of the administration, each rat was subjected to bladder catheterization under anesthesia, cystometry under no anesthesia, then cystometry under urethane anesthesia, and euthanasia under deep anesthesia, and the tissues (bladder, kidney) of the rat were extracted or surgically removed. As a normal group, the rats without operation for forming lower urinary tract obstruction were used.
The test system, the test substances, and the dosage are as follows. • Normal group: 0.5 v/v % Polysorbate 80 solution, 10 mL/kg (n=6) • Solvent group (control group): 0.5 v/v % Polysorbate 80 solution, 10 mL/kg (n=15) • Group A: Compound A, 10 mg/kg (n=15) • Group B3: Compound B, 3 mg/kg (n=7) • Group B10: Compound B, 10 mg/kg (n=7)
After urination, the residual urine was aspirated from the outlet end of the catheter placed in the bladder to measure the volume (mL) of the residual urine.
After urination, the weight of the voided urine was measured to determine the voided volume (g=mL), and then the urination efficiency was calculated by the following equation: Urination efficiency (%)=[(Voided volume (mL))/(Voided volume (mL)+Residual urine volume (mL))]×100
Bladder capacity (mL)=Voided volume (mL)+Residual urine volume (mL)
Moreover, the wet weight of the extracted bladder and that of the extracted kidney were measured.

[2] = test system: rats having the urination disorder associated with diabetes; experiment: Test Example 6: urination disorder model associated with streptozocin-induced diabetes, compound A versus compound C; details: STZ diabetes model
Method: As described below, a model of a urination disorder associated with streptozocin-induced diabetes was prepared as a urination disorder model in accordance with Test Example 4 to evaluate the effects of the compound A and the compound C on a urination disorder. This model has no benign prostatic hyperplasia and is a model of a urination disorder associated with neuropathy and smooth muscle contraction disorder.
The body weights of Rats (male, Crl:CD(SD), 5-week-old; Charles River Laboratories Japan, Inc.) were measured. On the basis of the body weight, the rats were grouped or divided into two (2) groups. The day after the rats were grouped, a first group received intraperitoneal administration of a citrate buffer (pH 4.5) (10 mL/kg) having a concentration of 0.1 mmol/L, and a second group received intraperitoneal administration of streptozocin (STZ; Sigma-Aldrich) (50 mg/kg). Streptozocin (STZ) was administered in the form of a solution of streptozocin having a concentration of 5 mg/mL in the citrate buffer.
About one (1) week after streptozocin (STZ) was administered, the body weight and the fasting blood glucose were measured. In the streptozocin (STZ) administration group (the second group), individuals having a fasting blood glucose level of not less than 300 mg/dL were used as animals with induced diabetes. These animals with induced diabetes are a model having no abnormality of the prostate (having no benign prostatic hyperplasia). On the basis of the body weight and the fasting blood glucose level, the animals (models) with induced diabetes were grouped or divided into three (3) groups by randomized, multivariable block allocation.
To the three model groups with induced diabetes, a 0.5 v/v % Polysorbate 80 solution (0.5% P) (10 mL/kg), the compound A (3 mg/kg), and the compound C (dutasteride) (0.3 mg/kg) were orally administered, respectively, wherein the administration schedule in all groups was a frequency of once a day, only on weekdays, over four (4) weeks. Moreover, to the above-mentioned first group, a 0.5 v/v % Polysorbate 80 solution (0.5% P) (10 mL/kg) was orally administered in the same administration schedule (normal group). On the last day of administration, a cannula was inserted into and secured to the dome of the bladder under isoflurane anesthesia, and cystometry (Cystometogram, CMG) was conducted in the order of under awake condition and under urethane anesthesia to measure the intravesical pressure, the voided volume, and the residual urine volume. After the completion of the measurement, the blood was collected under deep isoflurane anesthesia, and then the prostate (ventral prostate, dorsolateral prostate) was extracted and each was weighed. Moreover, the blood glucose level in the collected blood was measured.
Normal group: citrate buffer 10 mL/kg (intraperitoneal administration), 0.5% P 10 mL/kg (oral administration) (n=10) • Solvent group (control group): STZ 50 mg/kg (intraperitoneal administration), 0.5% P 10 mL/kg (oral administration) (n=10) • Group A3: STZ 50 mg/kg (intraperitoneal administration), Compound A 3 mg/kg (oral administration) (n=10) • Group C0.3: STZ 50 mg/kg (intraperitoneal administration), Compound C (dutasteride) 0.3 mg/kg (oral administration) (n=10)
Urination parameter: In the same manner as in Test Example 4, the residual urine volume (mL) and the urination efficiency (%) were determined as urination parameters in each urination, and the average value of two measurements was taken as a measured value of each individual.
Prostate weight: In the same manner as in Test Example 4, the weight of the prostate (ventral prostate, dorsolateral prostate, and whole) was converted to a tissue weight per 100 g of the body weight. For Group A3, which received the compound A, and Group C0.3, which received the compound C, the inhibition rate of the weight of the prostate relative to the weight of the prostate in the solvent group was calculated (with one decimal place). […]

[3] = test system: ovariectomized rats; experiment: Test Example 5: antiprogesterone activity, uterine weight associated with rat deciduoma formation; details: Rattus norvegicus, 192 h; ovariectomized rats, estrone + progesterone, oral 3 mg/kg once a day 8 days, compared with the solvent group; read-out: inhibition rate (increase of uterine weight, deciduoma formation)
Method: For the compound A and the compound D (mifepristone), the antiprogesterone activity was measured. Specifically, a sex hormone and a test substance were repeatedly administered to ovariectomized rats as a test system to examine the antiprogesterone action (antiprogesterone activity) based on, as an index, the fluctuation of the uterine weight (the inhibitory action relative to the increase of the weight) associated with rat deciduoma formation.
More specifically, rats (female, Crl:CD(SD), 5-week-old: Charles River Laboratories Japan, Inc.) were subjected to ovariectomy, and from one (1) week after the ovariectomy, a high dose estrone of 5 μg/one animal was hypodermically administered to the rats once a day for three (3) days. From the day after one day rest period, the rats received, once a day over eight (8) days, hypodermic administration of a low dose estrone (1 μg/one animal), intramuscular administration of progesterone (6 mg/kg), and oral administration of a test substance. In the middle of the administration, on Day 4 of the start of administration, the rats were subjected to a stimulation treatment of decidualization reaction to the right uterus. The day after the final administration, the uterine weight (right uterine body) was measured (n=6). Group E was subjected to ovariectomy and a stimulation treatment of decidualization reaction but was not subjected to a hormone treatment.
Group E: rats with ovariectomy without hormone treatment 0.5 v/v % Polysorbate 80 solution, 10 mL/kg (n=6) • Solvent group (control group): 0.5 v/v % Polysorbate 80 solution, 10 mL/kg (n=6) • Group A3: Compound A, 3 mg/kg (n=6) • Group A10: Compound A, 10 mg/kg (n=6) • Group A30: Compound A, 30 mg/kg (n=6) • Group D: Compound D (mifepristone), 3 mg/kg (n=6)

[4] = female rats, lower urinary tract obstruction, vs control group
[5] = Compound C 0.3 mg/kg, in comparison with the solvent group
[6] = Compound C oral 0.3 mg/kg, 4 weeks
[7] = Compound C oral 0.3 mg/kg, relative to solvent group

For `CC(=O)O[C@]1(C(C)=O)CC[C@H]2[C@@H]3C=C(Cl)C4=CC(=O)OC[C@]4(C)[C@H]3CC[C@@]21C` [Compound B, 17α-acetoxy-6-chloro-2-oxa-4,6-pregnadiene-3,20-dione, reference compound], the survival rate ([1]; female lower urinary tract obstruction rats) was “decreased”, the “wet weights of the bladder and the kidney” value ([1]; female rats, lower urinary tract obstruction) was “rather in the direction of increasing” and the residual urine volume ([1]; female rats, lower urinary tract obstruction, vs control (solvent) group) was “significantly increased”. The bladder capacity [1, 4] was “significantly increased” and the urination efficiency [1, 4] was “reduced”.

With `C[C@]12C=CC(=O)N[C@@H]1CC[C@@H]1[C@@H]2CC[C@]2(C)[C@@H](C(=O)Nc3cc(C(F)(F)F)ccc3C(F)(F)F)CC[C@@H]12` [Compound C, dutasteride, reference compound] the “position in nomogram analysis (bladder contraction force)” value ([2]; Compound C 0.3 mg/kg) was “at almost the same position as the solvent group”, the “therapeutic effect on diabetes” value ([2]; Compound C 0.3 mg/kg) was “no therapeutic effect” and the “weights of the ventral prostate, the dorsolateral prostate, and the whole prostate” value ([2]; Compound C 0.3 mg/kg, compared with the solvent group (P<0.05)) was “significant decrease”. The “residual urine volume, cystometry (CMG) under awake condition” value [2, 5] was “did not statistically affect”, the “urination efficiency, cystometry (CMG) under awake condition” value [2, 5] was “did not statistically affect” and the “effect on the blood glucose level” value ([2]; Compound C 0.3 mg/kg, vs solvent group) was “did not statistically affect”. For the same molecule, the “Prostate weight, ventral prostate” value ([2]; Compound C (dutasteride) oral 0.3 mg/kg, 4 weeks) was 58.4 ± 8.4 mg/100 g body weight, the Blood glucose level [2, 6] was 984.2 ± 282.0 mg/dL and the “Prostate weight, dorsolateral prostate” value [2, 6] was 40.5 ± 6.3 mg/100 g body weight. The “Prostate weight, whole” value [2, 6] was 98.9 ± 12.2 mg/100 g body weight, the “Dorsolateral prostate atrophy rate” value [2, 7] was “(37.5%)” and the “Ventral prostate atrophy rate” value [2, 7] was “(42.7%)”. The “Whole prostate atrophy rate” value [2, 7] was “(40.7%)”.

Work on `CC#C[C@]1(O)CC[C@H]2[C@@H]3CCC4=CC(=O)CCC4=C3[C@@H](c3ccc(N(C)C)cc3)C[C@@]21C` [Compound D, mifepristone, reference compound] yielded an inhibition at 3 mg/kg [3] of 89.5%.
